Data published in ChEMBL document CHEMBL1125229 (J Med Chem, 1991).

Target: Angiotensin-converting enzyme (Homo sapiens, UniProt P12821)
Assay: Compound was tested for its inhibitory potency against angiotensin I converting enzyme.

Angiotensin-converting enzyme, sequence (P12821 whole entry): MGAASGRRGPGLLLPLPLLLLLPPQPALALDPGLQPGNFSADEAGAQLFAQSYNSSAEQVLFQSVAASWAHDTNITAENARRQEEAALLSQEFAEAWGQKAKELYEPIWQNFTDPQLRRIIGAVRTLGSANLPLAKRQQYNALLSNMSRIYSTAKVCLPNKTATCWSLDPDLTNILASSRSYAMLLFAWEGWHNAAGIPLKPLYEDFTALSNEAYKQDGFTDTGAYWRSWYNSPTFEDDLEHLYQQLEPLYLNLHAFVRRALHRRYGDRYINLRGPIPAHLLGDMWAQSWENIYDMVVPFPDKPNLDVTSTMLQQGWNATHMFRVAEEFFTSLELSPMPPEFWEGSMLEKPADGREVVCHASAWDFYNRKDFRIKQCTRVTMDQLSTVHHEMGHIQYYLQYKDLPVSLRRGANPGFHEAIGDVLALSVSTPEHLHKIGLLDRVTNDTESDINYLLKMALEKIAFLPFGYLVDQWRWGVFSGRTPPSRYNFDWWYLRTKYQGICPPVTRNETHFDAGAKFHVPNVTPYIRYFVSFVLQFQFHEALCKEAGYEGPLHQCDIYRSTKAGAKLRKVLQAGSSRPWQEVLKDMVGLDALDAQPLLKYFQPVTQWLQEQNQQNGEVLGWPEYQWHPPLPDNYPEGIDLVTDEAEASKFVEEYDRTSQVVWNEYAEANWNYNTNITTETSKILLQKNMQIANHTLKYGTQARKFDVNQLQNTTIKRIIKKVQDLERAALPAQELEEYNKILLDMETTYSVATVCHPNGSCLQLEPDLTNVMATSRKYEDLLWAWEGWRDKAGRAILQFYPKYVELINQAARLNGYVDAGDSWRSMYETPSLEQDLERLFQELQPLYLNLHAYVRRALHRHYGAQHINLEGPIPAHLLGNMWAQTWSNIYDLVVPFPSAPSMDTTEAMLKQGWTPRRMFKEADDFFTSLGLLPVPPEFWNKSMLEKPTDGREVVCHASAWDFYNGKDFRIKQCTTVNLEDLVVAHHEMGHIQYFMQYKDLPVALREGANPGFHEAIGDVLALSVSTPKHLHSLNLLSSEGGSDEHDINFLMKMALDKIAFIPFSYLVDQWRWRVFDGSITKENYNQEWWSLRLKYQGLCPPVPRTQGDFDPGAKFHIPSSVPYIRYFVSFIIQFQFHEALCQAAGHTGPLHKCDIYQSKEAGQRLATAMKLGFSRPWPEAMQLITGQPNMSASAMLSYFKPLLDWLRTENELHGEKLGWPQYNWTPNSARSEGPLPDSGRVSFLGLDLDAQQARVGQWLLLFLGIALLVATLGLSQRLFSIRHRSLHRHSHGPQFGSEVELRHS

`O=C(O)C(CCc1ccccc1)NC1Cc2ccccc2[C@H]2CCC[C@@H](C(=O)O)N2C1=O` (stereo partly specified) gave a Ki of 1.2 nM.
